Assay results reported in PubChem BioAssay AID1919004 (Molecular Pharmacology Branch, DTP, NCI, 2023).

Test system: 883617-216-R-J1-PDC complex spheroids, growth, % test/control
Test: Anticancer human tumor 883617-216-R-J1-PDC patient-derived bladder carcinoma cell line growth inhibition [AhR]
Conditions: for IC50: curve of first compound; for viability, T/C: stronger effect = lower value
Outline: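 Complex tumor spheroids co-cultured with HUVEC and human MSC stroma; AhR antagonists tested in combination with standard-of-care and investigational agents. Top concentration at or near clinical Cmax (else 10 microM), half-log dilutions; growth expressed as percent test/control.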

[1] = second compound 0.1 µM, first compound 0.0316 µM
[2] = second compound 0.1 µM, first compound 0.1 µM
[3] = second compound 0.1 µM, first compound 0.316 µM
[4] = second compound 0.1 µM, first compound 1 µM
[5] = second compound 0.316 µM, first compound 0.0316 µM
[6] = second compound 0.316 µM, first compound 0.1 µM
[7] = second compound 0.316 µM, first compound 0.316 µM
[8] = second compound 0.316 µM, first compound 1 µM
[9] = second compound 1 µM, first compound 0.0316 µM
[10] = second compound 1 µM, first compound 0.1 µM
[11] = second compound 1 µM, first compound 0.316 µM
[12] = second compound 1 µM, first compound 1 µM
[13] = second compound 3.16 µM, first compound 0.0316 µM
[14] = second compound 3.16 µM, first compound 0.1 µM
[15] = second compound 3.16 µM, first compound 0.316 µM
[16] = second compound 3.16 µM, first compound 1 µM
[17] = second compound 10 µM, first compound 0.0316 µM
[18] = second compound 10 µM, first compound 0.1 µM
[19] = second compound 10 µM, first compound 0.316 µM
[20] = second compound 10 µM, first compound 1 µM
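Note: exposure lasted 7 days after dosing on day 3 of spheroid growth.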

## Nc1ccccc1NC(=O)c1ccc(CNC(=O)OCc2cccnc2)cc1 + Cc1ccccc1N=Nc1ccc(NC(=O)c2ccnn2C)c(C)c1
Second compound 0.1 µM
  IC50: 1060 nM
Second compound 0.316 µM
  IC50: 1080 nM
Second compound 1 µM
  IC50: 901 nM
Second compound 3.16 µM
  IC50: 818 nM
Second compound 10 µM
  IC50: 1140 nM
[1]
  viability, T/C: 102%
[2]
  viability, T/C: 103%
[3]
  viability, T/C: 77.5%
[4]
  viability, T/C: 51%
Second compound 0.1 µM, first compound 3.16 µM
  viability, T/C: 23.3%
Second compound 0.1 µM, first compound 10 µM
  viability, T/C: 1.52%
[5]
  viability, T/C: 85.7%
[6]
  viability, T/C: 95%
[7]
  viability, T/C: 86%
[8]
  viability, T/C: 49.5%
Second compound 0.316 µM, first compound 3.16 µM
  viability, T/C: 18.6%
Second compound 0.316 µM, first compound 10 µM
  viability, T/C: 1.3%
[9]
  viability, T/C: 87.6%
[10]
  viability, T/C: 88.5%
[11]
  viability, T/C: 76.7%
[12]
  viability, T/C: 44.8%
Second compound 1 µM, first compound 3.16 µM
  viability, T/C: 20.1%
Second compound 1 µM, first compound 10 µM
  viability, T/C: 1.53%
[13]
  viability, T/C: 80.2%
[14]
  viability, T/C: 84.7%
[15]
  viability, T/C: 70.6%
[16]
  viability, T/C: 44.8%
Second compound 3.16 µM, first compound 3.16 µM
  viability, T/C: 16.6%
Second compound 3.16 µM, first compound 10 µM
  viability, T/C: 1.32%
[17]
  viability, T/C: 79.5%
[18]
  viability, T/C: 76.6%
[19]
  viability, T/C: 72.4%
[20]
  viability, T/C: 51.9%
Second compound 10 µM, first compound 3.16 µM
  viability, T/C: 25.4%
Second compound 10 µM, first compound 10 µM
  viability, T/C: 2.23%

## CC1COCCN1c1cc(-c2ccnn2C)c2ccnc(-c3ccn[nH]3)c2n1 (stereo not given) + Cc1ccccc1N=Nc1ccc(NC(=O)c2ccnn2C)c(C)c1
Second compound 0.1 µM
  IC50: 906 nM
Second compound 0.316 µM
  IC50: > 1000 nM
Second compound 1 µM
  IC50: 813 nM
Second compound 3.16 µM
  IC50: 491 nM
Second compound 10 µM
  IC50: 624 nM
Second compound 0.1 µM, first compound 0.00316 µM
  viability, T/C: 98%
Second compound 0.1 µM, first compound 0.01 µM
  viability, T/C: 96.6%
[1]
  viability, T/C: 76.7%
[2]
  viability, T/C: 74.6%
[3]
  viability, T/C: 58.6%
[4]
  viability, T/C: 49.1%
Second compound 0.316 µM, first compound 0.00316 µM
  viability, T/C: 97.7%
Second compound 0.316 µM, first compound 0.01 µM
  viability, T/C: 83.3%
[5]
  viability, T/C: 85.9%
[6]
  viability, T/C: 69.6%
[7]
  viability, T/C: 55.7%
[8]
  viability, T/C: 51.4%
Second compound 1 µM, first compound 0.00316 µM
  viability, T/C: 84.4%
Second compound 1 µM, first compound 0.01 µM
  viability, T/C: 88.8%
[9]
  viability, T/C: 70.3%
[10]
  viability, T/C: 67.7%
[11]
  viability, T/C: 56%
[12]
  viability, T/C: 48.4%
Second compound 3.16 µM, first compound 0.00316 µM
  viability, T/C: 86.5%
Second compound 3.16 µM, first compound 0.01 µM
  viability, T/C: 81.2%
[13]
  viability, T/C: 71.2%
[14]
  viability, T/C: 71.2%
[15]
  viability, T/C: 49.8%
[16]
  viability, T/C: 44.3%
Second compound 10 µM, first compound 0.00316 µM
  viability, T/C: 77.9%
Second compound 10 µM, first compound 0.01 µM
  viability, T/C: 79.7%
[17]
  viability, T/C: 66.6%
[18]
  viability, T/C: 61.7%
[19]
  viability, T/C: 52.4%
[20]
  viability, T/C: 48.1%

## CCN(c1cc(-c2ccc(CN3CCOCC3)cc2)cc(C(=O)NCc2c(C)cc(C)[nH]c2=O)c1C)C1CCOCC1 + CC(CO)NC(=O)c1cc(-c2ccc(Cl)cc2)nn(-c2cnn(C)c2)c1=O
Second compound 0.1 µM
  IC50: > 3000 nM
Second compound 0.316 µM
  IC50: > 3000 nM
Second compound 1 µM
  IC50: > 3000 nM
Second compound 3.16 µM
  IC50: > 3000 nM
Second compound 10 µM
  IC50: 2650 nM
Second compound 0.1 µM, first compound 0.00949 µM
  viability, T/C: 94.7%
Second compound 0.1 µM, first compound 0.03 µM
  viability, T/C: 101%
Second compound 0.1 µM, first compound 0.0949 µM
  viability, T/C: 75.5%
Second compound 0.1 µM, first compound 0.3 µM
  viability, T/C: 85.5%
Second compound 0.1 µM, first compound 0.949 µM
  viability, T/C: 118%
Second compound 0.1 µM, first compound 3 µM
  viability, T/C: 112%
Second compound 0.316 µM, first compound 0.00949 µM
  viability, T/C: 83.9%
Second compound 0.316 µM, first compound 0.03 µM
  viability, T/C: 70.8%
Second compound 0.316 µM, first compound 0.0949 µM
  viability, T/C: 76.5%
Second compound 0.316 µM, first compound 0.3 µM
  viability, T/C: 88.5%
Second compound 0.316 µM, first compound 0.949 µM
  viability, T/C: 77.7%
Second compound 0.316 µM, first compound 3 µM
  viability, T/C: 80.8%
Second compound 1 µM, first compound 0.00949 µM
  viability, T/C: 96.1%
Second compound 1 µM, first compound 0.03 µM
  viability, T/C: 63.2%
Second compound 1 µM, first compound 0.0949 µM
  viability, T/C: 92.5%
Second compound 1 µM, first compound 0.3 µM
  viability, T/C: 98.4%
Second compound 1 µM, first compound 0.949 µM
  viability, T/C: 124%
Second compound 1 µM, first compound 3 µM
  viability, T/C: 86%
Second compound 3.16 µM, first compound 0.00949 µM
  viability, T/C: 80.7%
Second compound 3.16 µM, first compound 0.03 µM
  viability, T/C: 85%
Second compound 3.16 µM, first compound 0.0949 µM
  viability, T/C: 122%
Second compound 3.16 µM, first compound 0.3 µM
  viability, T/C: 102%
Second compound 3.16 µM, first compound 0.949 µM
  viability, T/C: 60.4%
Second compound 3.16 µM, first compound 3 µM
  viability, T/C: 100%
Second compound 10 µM, first compound 0.00949 µM
  viability, T/C: 62.8%
Second compound 10 µM, first compound 0.03 µM
  viability, T/C: 88.9%
Second compound 10 µM, first compound 0.0949 µM
  viability, T/C: 74.5%
Second compound 10 µM, first compound 0.3 µM
  viability, T/C: 132%
Second compound 10 µM, first compound 0.949 µM
  viability, T/C: 98.5%
Second compound 10 µM, first compound 3 µM
  viability, T/C: 45%
